The values that follow come from US12338216B2, “Solvates of abscisic acid and liquid compositions containing abscisic acid” (Clariant International Ltd., priority 2019, dated 2025).

Data set [1] has as its system poinsettia plants, e.g. the Merlot variety. Put plainly: Phytotoxicity / plant compatibility on indicator plants. The settings on record: 1 g/L; within one day. Format: in vivo. From the text: The plant compatibility of the abscisic acid was checked using indicator plants such as poinsettia plants, e.g. the Merlot variety. If no necrosis or other phytotoxicity symptoms such as leaf curl-up or deformation in any case were observed the substance is considered plant compatible and not phytotoxic.

For data set [2], the system named is enzymatically isolated cuticles of pear tree leaves. The data set can be described thus: Penetration of abscisic acid through enzymatically isolated cuticles of pear tree leaves (HPLC). The settings on record: active ingredient 0.1 g/L in spray liquid, tap water, n = 8-10. It counts as in vitro ADME. As to the method: In this test, the penetration of abscisic acid through enzymatically isolated cuticles of pear tree leaves was measured. The principle of the method has been published and described in detail e.g. in WO-A-2005/194844 or WO2017211572 A1.
To determine the penetration, 10 μl a spray liquor of the composition mentioned in the examples were applied to the outer side of a cuticle. In the spray liquors tap water was used in each case.
After application of the spray liquors was allowed to evaporate in each case the water, then in each case the chambers were inverted and placed in thermostated troughs, with air being blown at a defined temperature and humidity to the outside of the cuticle. The incipient penetration therefore took place at a relative humidity of 56% and a set temperature at 10° C. and 25° C. The penetration of active ingredients was determined by High Performance Liquid Chromatography (HPLC).

For data set [3] the following is noted: room temperature; cited from earlier work.

With ethoxylated lauryl alcohol, the Phytotoxicity symptoms result in data set [1] is “strong distinct necrosis”.
Consider `CC1=CC(=O)CC(C)(C)[C@@]1(O)/C=C/C(C)=C\C(=O)O` [abscisic acid, (2Z,4E)-5-[(1S)-1-hydroxy-2,6,6-trimethyl-4-oxocyclohex-2-en-1-yl]-3-methylpenta-2,4-dienoic acid], for which the “Mean penetration for abscisic acid after time” value in data set [2] (10° C./56% rH, 1 day) is listed as 5.3%; in data set [2] (10° C./56% rH, 2 day), 8.2%; in data set [2] (25° C./56% rH, 1 day), 1.4%; in data set [2] (25° C./56% rH, 2 day), 2.2%. In data set [3], the “Highest concentration that can be achieved in water” value is listed as “about 3000 ppm”.
